Measured values: ChEMBL document CHEMBL6071126, “Recent advances in the chemistry and biology of oleanolic acid and its derivatives” (Eur J Med Chem, 2024)
≈ marks a conversion by molar mass, not a printed value.

Experiments:
[1] = Potency index, ratio of OA IC50 to test compound IC50 for anti-inflammatory activity in LPS-induced mouse BV-2 cells assessed as inhibition of NO production; assay type: functional
[2] = Inhibition of Clostridium histolyticum Collagenase using DQ gelatin as substrate measured after 30 mins by fluorescence based microplate reader analysis; parameters: species or system Hathewaya histolytica
[3] = tested on: Hathewaya histolytica; test: Inhibition of Clostridium histolyticum Collagenase at 250 ug/ml relative to control; conditions: dose 250.0 µg/ml
[4] = tested on: HepG2; test: Antiproliferative activity against human HepG2 cells assessed as reduction in cell growth incubated for 72 hrs by MTT assay; assay type: functional, cell-based; conditions: HepG2, 72 h
[5] = tested on: HepG2; test: Cytotoxicity against human HepG2 cells assessed as reduction in cell viability incubated for 72 hrs by MTT assay; conditions: HepG2, 72 h
[6] = tested on: A549; test: Cytotoxicity against human A549 cells assessed as reduction in cell viability incubated for 72 hrs by MTT assay; conditions: A549, 72 h
[7] = tested on: BGC-823; test: Cytotoxicity against human BGC-823 cells assessed as reduction in cell viability incubated for 72 hrs by MTT assay; assay type: functional, cell-based; conditions: BGC-823, 72 h
[8] = tested on: MCF7; test: Cytotoxicity against human MCF7 cells assessed as reduction in cell viability incubated for 72 hrs by MTT assay; conditions: MCF7, 72 h
[9] = tested on: PC-3; test: Cytotoxicity against human PC-3 cells assessed as reduction in cell viability incubated for 72 hrs by MTT assay; assay type: functional, cell-based; conditions: PC-3, 72 h
[10] = target: Alpha glucosidase (Homo sapiens, UniProt O43451+P10253+P14410+Q2M2H8); test: Inhibition of Alpha glucosidase (unknown origin); assay type: protein assay
[11] = tested on: HeLa; test: Cytotoxicity against human HeLa cells assessed as reduction in cell viability incubated for 48 hrs by MTT assay; assay type: functional, cell-based
[12] = Apparent permeability across apical to basolateral side in human Caco-2 cells at 10 uM incubated for 90 mins at pH 7.4 by LC/MS analysis; assay type: ADME, cell-based; conditions: Caco-2, pH 7.4
[13] = Oral bioavailability in rat; assay type: ADME, organism-based; conditions: in vivo
[14] = Aqueous solubility of compound; assay type: physicochemical

In the case of COC(=O)[C@]12CCC(C)(C)CC1C1=CC(=O)C3[C@@]4(C)Cc5c([nH]c6ccc(C#N)cc56)C(C)(C)C4CC[C@@]3(C)[C@]1(C)CC2 (stereo partly specified), the “Ratio IC50” value [1] is reported as 1.93.
With CC(C)[C@H](NC(=O)[C@H](CCCCN)NC(=O)[C@]12CCC(C)(C)CC1C1=CCC3[C@@]4(C)CC[C@H](O)C(C)(C)C4CC[C@@]3(C)[C@]1(C)CC2)C(=O)N[C@@H](CCCCN)C(=O)O (stereo partly specified) the IC50 [2] was 48.8 µg/mL (≈ 60.1 µM) and the inhibition [3] was 100%.
CON(C[C@]12CCC(C)(C)CC1C1=CCC3[C@@]4(C)CC[C@H](O)C(C)(C)C4CC[C@@]3(C)[C@]1(C)CC2)[C@@H]1O[C@H](CO)[C@@H](O)[C@H](O)[C@H]1O (stereo partly specified) showed an IC50 [4] of 2100 nM.
With O=c1[nH]cc(F)c(=O)[nH]1 [FLUOROURACIL] the IC50 [5] was less than 1000 nM, the IC50 [6] was less than 1000 nM and the IC50 [7] was less than 1000 nM. For the same molecule, the IC50 [8] was less than 1000 nM and the IC50 [9] was less than 1000 nM.
With COC(=O)[C@]12CCC(C)(C)CC1C1=CC(=O)C3[C@@]4(C)Cc5c([nH]c6cc(F)cc(F)c56)C(C)(C)C4CC[C@@]3(C)[C@]1(C)CC2 (stereo partly specified) the “Ratio IC50” value [1] was 2.41.
With CC1(C)CC[C@]2(C(=O)C(=O)O)CC[C@]3(C)C(=CCC4[C@@]5(C)Cc6cnn(-c7ccc(Cl)cc7)c6C(C)(C)C5CC[C@]43C)C2C1 (stereo partly specified) the IC50 [10] was 2640 nM.
With Cc1ccccc1COC(=O)[C@]12CCC(C)(C)CC1C1=CCC3[C@@]4(C)CC[C@H](OC(=O)/C=C/c5ccc([N+](=O)[O-])cc5)C(C)(C)C4CC[C@@]3(C)[C@]1(C)CC2 (stereo partly specified) the IC50 [11] was 1350 nM.
Molecule CC1(C)CC[C@]2(C(=O)O)CC[C@]3(C)C(=CC[C@@H]4[C@@]5(C)CC[C@H](O)C(C)(C)[C@@H]5CC[C@]43C)[C@@H]2C1 [OLEANOLIC_ACID] has a Papp A→B at 1.5 h, 10 µM [12] of 1.1 ×10⁻⁶ cm/s, a bioavailability [13] of 0.7% and a solubility [14] of less than 1 µg/mL.
Work on CC1(C)CC[C@]2(C(=O)OCc3ccccc3Cl)CC[C@]3(C)C(=CCC4[C@@]5(C)CC[C@H](O)C(C)(C)C5CC[C@]43C)C2C1 (stereo partly specified) yielded an IC50 [11] of 1550 nM.
